Measured values from the supplement of paper PMC10307832.

What was measured:
Test in all cases: relative viability (nuclei count vs DMSO), 5 days (fraction); higher = more cells survive
Pemetrexed + OSI-027 = compound: Nc1nc2[nH]cc(CCc3ccc(C(=O)N[C@@H](CCC(=O)O)C(=O)O)cc3)c2c(=O)[nH]1 [Pemetrexed] + COc1cccc2cc(-c3nc([C@H]4CC[C@H](C(=O)O)CC4)n4ncnc(N)c34)[nH]c12 [OSI-027] (partner 0.5 µM)
How it was run: (§1)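 Lung cancer cell lines were seeded in 1536-well plates and dosed by pin tool the next day, with either a single drug or a fixed anchor-drug dose combined with five library-drug doses (not always all listed) spaced in √10 steps. Five days later, one step fixed the cells and stained their nuclei (final 0.05% Triton X-100, 1% formaldehyde, 1 ug/ml Hoechst), and nuclei were counted on 4× images. Relative viability is the nuclei count in treated wells divided by the count in vehicle wells, and each value is the median of duplicate plates.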

Idelalisib + Pemetrexed = compound: CC[C@H](Nc1ncnc2[nH]cnc12)c1nc2cccc(F)c2c(=O)n1-c1ccccc1 [Idelalisib] + Nc1nc2[nH]cc(CCc3ccc(C(=O)N[C@@H](CCC(=O)O)C(=O)O)cc3)c2c(=O)[nH]1 [Pemetrexed] (partner 0.2 µM)
How it was run: as §1

Idelalisib + Luminespib = compound: CC[C@H](Nc1ncnc2[nH]cnc12)c1nc2cccc(F)c2c(=O)n1-c1ccccc1 [Idelalisib] + CCNC(=O)c1noc(-c2cc(C(C)C)c(O)cc2O)c1-c1ccc(CN2CCOCC2)cc1 [Luminespib] (partner 0.01 µM)
How it was run: as §1

Idelalisib = compound: CC[C@H](Nc1ncnc2[nH]cnc12)c1nc2cccc(F)c2c(=O)n1-c1ccccc1 [Idelalisib]
How it was run: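 Vehicle-anchored 1536-well plates of lung cancer cell lines, held overnight at 37 °C, were pinned with five library-drug doses (not always all listed) spaced by √10. No medium change followed over the next 5 days, after which the cells were fixed, permeabilised and Hoechst-stained together and imaged at 4×. Nuclei were counted with MetaXpress, and viability is treated-well nuclei over vehicle-well nuclei, taken as a median across plates. Plates passed with control CV below 25% and at least one doubling.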

| Cell Line | relative viability (Pemetrexed + OSI-027; first compound 0.002 µM) | relative viability (Pemetrexed + OSI-027; first compound 0.02 µM) | relative viability (Pemetrexed + OSI-027; first compound 0.06325 µM) | relative viability (Pemetrexed + OSI-027; first compound 0.2 µM) | relative viability (Idelalisib + Pemetrexed; first compound 0.04 µM) | relative viability (Idelalisib + Pemetrexed; first compound 0.1265 µM) | relative viability (Idelalisib + Pemetrexed; first compound 0.4 µM) | relative viability (Idelalisib + Pemetrexed; first compound 1.265 µM) | relative viability (Idelalisib + Pemetrexed; first compound 4 µM) | relative viability (Idelalisib + Luminespib; first compound 0.04 µM) | relative viability (Idelalisib + Luminespib; first compound 0.1265 µM) | relative viability (Idelalisib + Luminespib; first compound 0.4 µM) | relative viability (Idelalisib + Luminespib; first compound 1.265 µM) | relative viability (Idelalisib + Luminespib; first compound 4 µM) | relative viability (Idelalisib; 0.04 µM) | relative viability (Idelalisib; 0.1265 µM) | relative viability (Idelalisib; 0.4 µM) | relative viability (Idelalisib; 1.265 µM) | relative viability (Idelalisib; 4 µM) | relative viability (Pemetrexed + OSI-027; first compound 0.006325 µM) |
| --- | --- | --- | --- | --- | --- | --- | --- | --- | --- | --- | --- | --- | --- | --- | --- | --- | --- | --- | --- | --- |
| NCI-H2228 | 0.506 | 0.566 | 0.565 | 0.218 | 0.369 | 0.323 | 0.407 | 0.312 | 0.325 | 0.0989 | 0.17 | 0.16 | 0.175 | 0.133 | 1.22 | 0.84 | 0.788 | 1.12 | 0.972 | – |
| NCI-H2342 | 0.537 | 0.593 | 0.633 | 0.698 | 0.853 | 0.74 | 0.717 | 0.706 | 0.765 | 0.764 | 0.757 | 0.629 | 0.72 | 0.496 | 1.06 | 1.09 | 0.907 | 1.03 | 0.882 | 0.618 |
| NCI-H2347 | 0.296 | 0.49 | 0.406 | 0.339 | 0.436 | 0.423 | 0.436 | 0.452 | 0.402 | 0.506 | 0.581 | 0.448 | 0.362 | 0.532 | 1.1 | 1.03 | 0.904 | 1.14 | 0.866 | 0.292 |
| NCI-H2405 | 0.628 | 0.67 | 0.641 | 0.663 | 1.13 | 1.06 | 0.986 | 0.974 | 1.09 | 0.777 | 0.621 | 0.473 | 0.52 | 0.442 | 1.06 | 0.985 | 0.886 | 1 | 0.956 | 0.597 |
| NCI-H3122 | 0.857 | 0.923 | 0.524 | 0.221 | 0.21 | 0.207 | 0.196 | 0.188 | 0.198 | 0.0784 | 0.0938 | 0.115 | 0.0796 | 0.0833 | 1.03 | 0.989 | 1 | 0.977 | 1.03 | 0.879 |
| PC-3 [JPC-3] | 0.59 | 0.715 | 0.916 | 0.765 | 1.4 | 1.16 | 1.11 | 1.09 | 1.08 | 0.487 | 0.65 | 0.69 | 0.65 | 0.497 | 1.19 | 1.05 | 1.03 | 1.02 | 0.915 | 0.786 |
| PC-14 | 0.681 | 1.16 | 0.197 | 0.102 | 0.15 | 0.126 | 0.148 | 0.142 | 0.135 | 0.158 | 0.136 | 0.127 | 0.154 | 0.123 | 1.07 | 1.05 | 0.951 | 0.922 | 0.959 | 0.769 |
| RERF-LC-KJ | 0.528 | 0.666 | 0.546 | 0.451 | 0.46 | 0.44 | 0.46 | 0.491 | 0.448 | 1.31 | 1.33 | 1.12 | 1.19 | 1.07 | 1.11 | 0.99 | 0.955 | 0.959 | 0.817 | 0.508 |
| SK-LU-1 | 0.312 | 0.398 | 0.352 | 0.34 | 0.86 | 1.06 | 0.943 | 0.919 | 0.967 | 0.225 | 0.189 | 0.185 | 0.188 | 0.205 | 1.07 | 1.11 | 0.866 | 0.953 | 0.979 | 0.319 |
| SK-MES-1 | 0.72 | 0.615 | 0.572 | 0.554 | 0.993 | 0.997 | 0.878 | 0.433 | 0.909 | 0.847 | 0.689 | 0.591 | 0.546 | 0.542 | 1.04 | 1.01 | 0.885 | 0.749 | 0.745 | 0.611 |
| SW 900 | 0.633 | 0.689 | 0.591 | 0.464 | 0.493 | 0.488 | 0.476 | 0.509 | 0.406 | 0.21 | 0.193 | 0.152 | 0.183 | 0.165 | 0.855 | 0.851 | 0.701 | 0.853 | 0.696 | 0.608 |
| SW 1573 | 0.602 | 0.718 | 0.646 | 0.61 | 0.825 | 0.848 | 0.802 | 0.702 | 0.739 | 0.275 | 0.171 | 0.219 | 0.17 | 0.365 | 1.09 | 0.886 | 0.896 | 0.961 | 0.923 | 0.465 |
